Results reported in publication PMC4117522, “Proteasome Inhibitors Alter Levels of Intracellular Peptides in HEK293T and SH-SY5Y Cells” (PLoS ONE, 2014).
“And” between values parts separate entries of the source, which are not always exact repeats. Equal values may be shown once.

System: HEK293T cells
Assay: Quantitative peptidomics (TMAB isotopic labels, LC-MS/MS) of inhibitor-treated HEK293T cells
Type: cell-based, human
Description: HEK293T and SH-SY5Y cells were grown to 80–90% confluence in DMEM and RPMI supplemented with 10% fetal bovine serum and penicillin/streptomycin. A single plate of cells (150 mm×25 mm) was used for each group. At the start of the experiment, media were removed from the plates and cells were washed with DPBS (138 mM NaCl, 8.06 mM Na2HPO4, 2.67 mM KCl, 1.47 mM KH2PO4, 0.9 mM CaCl2 and 0.49 mM MgCl2). This was followed by addition of serum-free media containing the proteasome or aminopeptidase inhibitors, or 0.05% DMSO as a control for the inhibitors that were soluble in DMSO. Each experiment consisted of two control groups and two or three replicate groups of cells treated with one of the inhibitors. The cells were incubated at 37°C for 20 minutes, following which media containing the inhibitor was removed, cells were washed with DPBS, detached from the plate by scraping into DPBS (without trypsin), and centrifuged at 800×g for 5 min. The wash buffer was supplemented with the appropriate inhibitor at the same concentration as used for the treatment, thereby ensuring that the changes induced in peptide levels were not reversed during harvesting of cells due to possible dissociation of the reversible inhibitors. The wash time (including centrifugation) was 15 minutes, for a total treatment time of 35 minutes. After centrifugation, the cell pellet was resuspended in 1 ml of 80°C water and incubated in an 80°C water bath for 20 minutes to inactivate proteases. The mixture was again centrifuged (13,000×g, 30 min, 4°C) and was stored at −80°C overnight. For peptide extraction, the samples were thawed and centrifuged again. The lysate was subsequently cooled on ice and acidified with HCl to a final concentration of 10 mM. After 15 min incubation on ice, the lysate was centrifuged at 13,000×g for 30 min at 4°C. To the supernatant, 250 µL of dibasic sodium phosphate (0.4 M, pH 9.5) was added and the mixture was stored at −80°C until labeling.
The labeling protocol has been earlier described in detail. Each group within an experiment (control/treated) was labeled with a different isotopic tag. The TMAB-NHS labels were dissolved in DMSO to a concentration of 400 µg/µL and 15 mg of label was used per 150 mm plate of cells. […] At the beginning, the pH of the peptide extract was adjusted to 9.5 with 1 M NaOH. Labeling was performed over 8 rounds; 4.69 µL of the label was added to the extract every 20 min. The pH was measured between each round and if necessary, brought back to 9.5 for the first five rounds. For rounds 6–8, the pH was not adjusted after the addition of the TMAB-NHS reagent. After the final round of label addition, the pH was adjusted to 9.5 again and the extracts were incubated at room temperature for 90 min. Thereafter, 30 µL of 2.5 M glycine was added to quench any unreacted label. Following 40 min incubation at room temperature, the labeled extracts for a single experiment were pooled and filtered through Amicon Ultracel-10 K units. It is important to ensure that only N-terminal amines and lysine side-chain amines of peptides are TMAB-labeled and not tyrosines. To hydrolyze any labeled tyrosine, 30 µL of a 2 M solution of hydroxylamine hydrochloride (pH 3.7) was added over three rounds to the pooled and filtered sample. The pH was measured after the addition of hydroxylamine and adjusted to 9.0 with 1 M NaOH. The samples were desalted through PepClean C-18 spin columns (Thermo Scientific, Rockford, IL, USA) by following manufacturer’s instructions. Peptides were eluted using 160 µL of 0.5% TFA and 70% acetonitrile, frozen at −80°C and then lyophilized in a vacuum centrifuge and stored at −80°C until analysis by mass spectrometry.
The LC-MS/MS experiments were performed on a Synapt G2 mass spectrometer coupled to a NanoAcquity capillary liquid chromatography system (Waters Co., Milford, MA, USA).

SMILES: CN1C/C(=C/c2ccc(B(O)O)cc2)C(=O)/C(=C\c2ccc(B(O)O)cc2)C1 [AM114, reference compound]
- Relative Levels of peptide ADKVPKTAENFRAL (PPIA) (1 uM, 35', HEK): 1.29 and 0.68 and 0.72
- Relative Levels of peptide AGAAVDELGKVLTPTQV (PEBP1) (1 uM, 35', HEK): 1.53 and 0.85
- Relative Levels of peptide AKADGIVSKNF (RPS21) (1 uM, 35', HEK): 0.95 and 0.82 and 0.98
- Relative Levels of peptide APIKVGDAIPAVEVF (PRDX5) (1 uM, 35', HEK): 1.44 and 0.88
- Relative Levels of peptide APPTAYIDFARQK (TPI1) (1 uM, 35', HEK): 1.67 and 1.17
- Relative Levels of peptide ASQPDVDGFLVGGASLKPEFVDIINAKQ (TPI1) (1 uM, 35', HEK): 0.84 and 1.26 and 1.47
- Relative Levels of peptide AVDGEPLGRVSF (PPIA) (1 uM, 35', HEK): 1.20 and 0.93 and 0.87
- Relative Levels of peptide Ac-AAPVDLELKKAFTEL (PFDN1) (1 uM, 35', HEK): 1.09 and 0.91 and 0.97
- Relative Levels of peptide Ac-AEEGIAAGGVMDVNTALQEVLKT (RPS12) (1 uM, 35', HEK): 0.90 and 1.10
- Relative Levels of peptide Ac-ANLERTFIAIKPDGV (NME2) (1 uM, 35', HEK): 1.00 and 1.33
- Relative Levels of peptide Ac-ASKRALVIL (PARK7) (1 uM, 35', HEK): 1.00
- Relative Levels of peptide Ac-ASKRALVILA (PARK7) (1 uM, 35', HEK): 0.86 and 1.00
- Relative Levels of peptide Ac-MDTSRVQPIKL (RPS28) (1 uM, 35', HEK): 0.94 and 1.00
- Relative Levels of peptide Ac-MDTSRVQPIKLAR (RPS28) (1 uM, 35', HEK): 1.18 and 1.12 and 1.00
- Relative Levels of peptide Ac-MDTSRVQPIKLARVTKV (RPS28) (1 uM, 35', HEK): 1.29 and 1.14
- Relative Levels of peptide Ac-SSEEGKLFVGGLNF (RBM3) (1 uM, 35', HEK): 0.90 and 1.03
- Relative Levels of peptide Ac-SYGRPPPDVEGMTSLKVDNL (SRSF2) (1 uM, 35', HEK): 0.91 and 1.06 and 1.09
- Relative Levels of peptide Ac-[…] (COX6B1) (1 uM, 35', HEK): 1.03 and 0.97
- Relative Levels of peptide GESDDSILRLAKADGIVSKNF (RPS21) (1 uM, 35', HEK): 1.09 and 0.90 and 0.85
- Relative Levels of peptide GFGDLKSPAGLQVL (EEF1B2) (1 uM, 35', HEK): 1.74 and 1.18
- Relative Levels of peptide GISTPEELGLDKV (COX5A) (1 uM, 35', HEK): 1.60 and 1.00
- Relative Levels of peptide KHTGPGILSM (PPIA) (1 uM, 35', HEK): 1.13 and 1.00 and 0.92
- Relative Levels of peptide PGIVELPTLEEL (NDUFA8) (1 uM, 35', HEK): 1.07 and 0.80 and 0.67
- Relative Levels of peptide SLGELIGTLNA (TPI1) (1 uM, 35', HEK): 1.06 and 0.59 and 0.88
- Relative Levels of peptide VNPTVFFDI (PPIA) (1 uM, 35', HEK): 1.20 and 0.67 and 0.80
- change in levels of intracellular peptides (peptidome) (HEK293T cells, 35 min, 2.5 µM MG132, 1 µM other inhibitors): did not produce a substantial change in levels of peptides
